One assay has as its system CD45RA T cells. The assay is described as follows: Annexin V/propidium iodide FACS apoptosis of stimulated CD45RA T cells. The format is cell-based, human. The settings on record: rIL-2, anti-CD3 plus anti-CD28; after 5 days. From the text:
(§1) Isolation of primary CD4^+ T lymphocytes and lamina propria cells: Human peripheral blood mononuclear cells (PBMCs) from healthy volunteers (25-42 years of age) and patients with Crohn's disease (31-65 years of age) were isolated using Ficoll-Hypaque gradients. PBMCs were further purified using CD4 monoclonal antibodies attached to immunomagnetic beads according to the manufacturer's protocol, followed by treatment with Detachabead (Dynal; Oslo, Norway). In some cases, CD4^+ T cells were further separated by negative selection techniques using CD45RO or CD45RA monoclonal antibodies (PharMingen; Heidelberg, Germany) and immunomagnetic beads (Dynal). […]
(§2) For FACS analysis, apoptotic cells were detected by staining with annexin V and propidium iodide using the Annexin V FITC Apoptosis Detection Kit I (PharMingen) (Atreya et al., Nat. Med. 6:583-588 (2000)). […] To verify the results obtained with the annexin V/propidium iodide staining, analysis of T cells displaying DNA fragmentation was also determined by the Nicoletti technique, as described in (Nicoletti et al., J. Immunol. Methods 139:271-279 (1991)). […] Finally, cells were analyzed on a FACScan flow cytometer. […]

A further assay deals with CD45RO memory T cells. In words: Annexin V/propidium iodide FACS apoptosis of stimulated CD45RO T cells. The settings on record: rIL-2, anti-CD3 plus anti-CD28; 5 days; more pronounced than in CD45RA T cells. The class given is cell-based, human.
From the text: as §1, §2

`Sc1ncnc2nc[nH]c12` [6-MP, 6-mercaptopurine]: in the assay on CD45RA T cells, the “induction of annexin V-positive, propidium iodide-negative naive CD45RA T cells” value is given as “significant induction”. Further, in the assay on CD45RO memory T cells, the “apoptosis of CD45RO memory T cells” value was “induced apoptosis”.

On to `Cn1cnc([N+](=O)[O-])c1Sc1ncnc2nc[nH]c12` [azathioprine, Azathioprine], for which the “induction of annexin V-positive, propidium iodide-negative naive CD45RA T cells” value in the assay on CD45RA T cells is given as “significant induction”. The “apoptosis of CD45RO memory T cells” value in the assay on CD45RO memory T cells is recorded as “induced apoptosis”.
